From patent US9353075B2, “Disubstituted beta-lactones as inhibitors of N-acylethanolamine acid amidase (NAAA)” (The Regents of the University of California, priority 2011, dated 2016) come the findings set out here.

pIC50: −log10 of the molar value.

The target of one test is r-NAAA (Rattus norvegicus (Rat), UniProt Q5KTC7). The test is described as follows: r-NAAA inhibition, rat lung lysosomal NAAA preparation, UPLC/MS. Format: biochemical.
Sequence of r-NAAA (Q5KTC7 34-362): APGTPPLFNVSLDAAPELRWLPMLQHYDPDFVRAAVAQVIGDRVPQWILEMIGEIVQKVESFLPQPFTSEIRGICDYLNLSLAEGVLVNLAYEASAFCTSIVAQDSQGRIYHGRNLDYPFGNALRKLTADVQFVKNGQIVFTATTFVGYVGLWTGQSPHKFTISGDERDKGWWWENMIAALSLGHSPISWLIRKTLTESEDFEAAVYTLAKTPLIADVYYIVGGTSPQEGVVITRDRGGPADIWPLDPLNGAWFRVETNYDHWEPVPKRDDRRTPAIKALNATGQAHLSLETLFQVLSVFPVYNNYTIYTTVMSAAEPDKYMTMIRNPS
Conditions: not given
The method, then:
Lysosomal NAAA protein preparation were obtained by homogenizing male Sprague-Dawley rat lungs (Charles River) in 20 mM Tris-HCl buffer pH 7.4 containing 0.32M sucrose. Samples were centrifuged at 800×g for 15 minutes at 4° C. Supernatants were then centrifuged at 12,000 g for 30 minutes at 4° C. Pellets were then resuspended in PBS pH 7.4 and subjected to a freeze/thaw cycle at −80° C. The suspension was finally centrifuged at 105,000×g for 1 hour at 4° C. The supernatant was then used in the enzymatic assay.
NAAA protein preparation was pre-incubated with various concentrations of test compounds or vehicle control in 100 mM NaH2PO4/Citrate buffer, 1% Triton-X, 3 mM DTT (pH 4.5) for 30 minutes at 37° C. Samples were then incubated with heptadecenoylethanolamide (50 μM, Avanti Polar Lipids) at 37° C. for 30 min. The reaction was terminated by addition of cold methanol containing heptadecanoic acid (NuCheck Prep) as internal standard. Samples were then analyzed by UPLC/MS (Acquity, Waters). Heptadecenoic and heptadecanoic acids were eluted on an Acquity UPLC BEH C18 column (50 mm length, 2.1 mm i.d., 1.7 μm pore size, Waters) isocratically at 0.5 mL/min for 1.5 min with a solvent mixture of 95% methanol and 5% water, both containing 0.25% Acetic Acid and 5 mM Ammonium Acetate. The column temperature was 40° C. Electrospray ionization was in the negative mode, capillary voltage was 0.5 kV, cone voltage was […], desolvation temperature was 500° C. N2 was used as drying gas at a flow rate of 1000 L/hour and a temperature of 500° C. The [M−H]^− ion was monitored in the selected-ion monitoring mode (m/z values: heptadecenoic acid 267.37, heptadecanoic acid 269.37). Calibration curves were generated using commercial heptadecenoic acid (NuCheck Prep). Inhibition of NAAA activity was calculated as reduction of heptadecenoic acid in the samples compared to vehicle controls. IC50 values were calculated by non-linear regression analysis of log [concentration]/inhibition curves using GraphPad Prism 5 (GraphPad Software Inc., CA—USA) applying a standard slope curve fitting.
Take `CC(C)C(CCCCc1ccccc1)OC(=O)N[C@H]1C(=O)O[C@H]1C` (mixture of isomers) [Example 28, [(1R) and (1S)-1-Isopropyl-5-phenyl-pentyl]-N-[(2S,3R)-2-methyl-4-oxo-oxetan-3-yl]-carbamate]: the pIC50 – broadly, −log10 of the IC50, conventionally taken in molar units – was 7.00.

`C[C@@H]1OC(=O)[C@@H]1NC(=O)OC1CCC(Cc2ccccc2)CC1` (mixture of isomers) [Example 30, (1s,4S) and (1r, 4R)-(4-Benzylcyclohexyl)-N-[(2S,3R)-2-methyl-4-oxooxetan-3-yl]-carbamate] showed a pIC50 of 6.51.

With `CCCCCOC(=O)N[C@H]1C(=O)O[C@H]1C` [Example 1, Pentyl-[(2S,3R)-2-methyl-4-oxooxetan-3-yl]-carbamate], the pIC50 was 6.17. This pIC50 is 0.34 log units lower than that of the molecule before.

The molecule `Cc1ccc(CCOC(=O)N[C@H]2C(=O)O[C@H]2C)cc1` [Example 3, 2-(4-methylphenyl)ethyl-[(2S,3R)-2-methyl-4-oxooxetan-3-yl]-carbamate] had a pIC50 of 5.92. Against the preceding molecule, the pIC50 is 0.25 log units lower.

`C[C@@H]1OC(=O)[C@@H]1NC(=O)OCCCc1ccccc1` [Example 4, 3-phenylpropyl-[(2S,3R)-2-methyl-4-oxooxetan-3-yl]-carbamate]: the pIC50 is 7.08.

In turn, `C[C@@H]1OC(=O)[C@@H]1NC(=O)OC1CCN(C(=O)c2ccccc2)CC1` [Example 9, (1-benzoyl-4-piperidyl)-N-[(2S,3R)-2-methyl-4-oxo-oxetan-3-yl]-carbamate] had a pIC50 of 5.88.

With `C[C@@H]1OC(=O)[C@@H]1NC(=O)OC1(C)CCCCC1` [Example 10, (1-methylcyclohexyl)-[(2S,3R)-2-methyl-4-oxo-oxetan-3-yl]-carbamate], the pIC50 was 6.08.

As to `C[C@@H]1OC(=O)[C@@H]1NC(=O)OC1(C)CCOCC1` [Example 11, (4-methyltetrahydropyran-4-yl)-N-[(2S,3R)-2-methyl-4-oxo-oxetan-3-yl]-carbamate], the pIC50 is 4.40. This pIC50 lies 1.68 log units lower than the previous one.

Turning to `C[C@@H]1OC(=O)[C@@H]1NC(=O)OCCCCCCCc1ccccc1` [Example 16, 7-Phenylheptyl-N-[(2S,3R)-2-methyl-4-oxo-oxetan-3-yl]-carbamate], the pIC50 was 6.96.

Molecule `C[C@@H]1OC(=O)[C@@H]1NC(=O)OC1(C)CCCC1` [Example 23, (1-Methylcyclopentyl) N-[(2S,3R)-2-methyl-4-oxo-oxetan-3-yl]-carbamate] showed a pIC50 of 5.91.

For the molecule `CCCCC1(OC(=O)N[C@H]2C(=O)O[C@H]2C)COC1` [Example 24, (3-butyloxetan-3-yl)-N-[(2S,3R)-2-methyl-4-oxo-oxetan-3-yl]-carbamate], the pIC50 was 5.42. Compared with the last molecule, the pIC50 is 0.49 log units lower.

`C[C@@H]1OC(=O)[C@@H]1NC(=O)Oc1ccc(OCc2ccccc2)cc1` [Example 26, (4-benzyloxyphenyl)-N-[(2S,3R)-2-methyl-4-oxo-oxetan-3-yl]-carbamate] showed a pIC50 of 6.54.

For the molecule `C[C@@H]1OC(=O)[C@@H]1NC(=O)OC1CCC(=Cc2ccccc2)CC1` (stereo partly drawn) [Example 31, (R,Z) and (S,E)-(4-Benzylidenecyclohexyl)-N-[(2S,3R)-2-methyl-4-oxooxetan-3-yl]-carbamate], the pIC50 was 6.12.

`C[C@@H]1OC(=O)[C@@H]1NC(=O)OCCc1ccccc1` [Example 33, Phenethyl-N-[(2S,3R)-2-methyl-4-oxo-oxetan-3-yl]-carbamate] gave a pIC50 of 5.60.

For `C[C@@H]1OC(=O)[C@@H]1NC(=O)OCCCCCCc1ccccc1` [Example 34, 6-Phenylhexyl-N-[(2S,3R)-2-methyl-4-oxo-oxetan-3-yl]-carbamate], the pIC50 is 5.93. This pIC50 lies 0.33 log units higher than the previous one.

For `C[C@@H]1OC(=O)[C@@H]1NC(=O)OCCOCCc1ccccc1` [Example 36, 2-Phenethyloxyethyl-N-[(2S,3R)-2-methyl-4-oxo-oxetan-3-yl]-carbamate], the pIC50 was 6.85.

The molecule `C[C@H]1OC(=O)[C@H]1NC(=O)OCCCCCc1ccccc1` [Example 37, 5-Phenylpentyl-N-[(2R,3S)-2-methyl-4-oxo-oxetan-3-yl]-carbamate] gave a pIC50 of 5.45.

Molecule `C[C@H]1OC(=O)[C@@H]1NC(=O)OCCCCCc1ccccc1` [Example 38, 5-Phenylpentyl-N-[(2R,3R)-2-methyl-4-oxo-oxetan-3-yl]-carbamate] gave a pIC50 of 7.74.

With `CCCCCCOC(=O)N[C@H]1C(=O)O[C@H]1C` [Example 39, Hexyl-N-[(2S,3R)-2-methyl-4-oxo-oxetan-3-yl]-carbamate], the pIC50 was 6.57.

Molecule `CCCCCCCOC(=O)N[C@H]1C(=O)O[C@H]1C` [Example 40, Heptyl-N-[(2S,3R)-2-methyl-4-oxo-oxetan-3-yl]-carbamate] gave a pIC50 of 7.40.

With `C[C@@H]1OC(=O)[C@@H]1N(C)C(=O)OCCCCCc1ccccc1` [Example 41, 5-Phenylpentyl-N-methyl-N-[(2S,3R)-2-methyl-4-oxo-oxetan-3-yl]-carbamate], the “r-NAAA IC50 (μM) or % inhib. (result in words)” value is given as “No inhib”.

The test is the same for the next values; noted with them: read-out: r-NAAA % inhib. @ 3 μM.
On to `CC[C@H]1OC(=O)[C@@H]1NC(=O)OCc1ccc(-c2ccccc2)cc1` (relative stereo) [Example 48, (4-Phenylphenyl)-methyl-N-[(2R*,3R*)-2-ethyl-4-oxo-oxetan-3-yl]-carbamate], for which the inhibition at 3 µM was 100%.

Take `CC[C@@H]1OC(=O)[C@@H]1NC(=O)OCc1ccc(-c2ccccc2)cc1` (relative stereo) [Example 50, (4-Phenylphenyl)-methyl-N-[(2S*,3R*)-2-ethyl-4-oxo-oxetan-3-yl]-carbamate]: the inhibition at 3 µM was determined as 100%.

For `CC(C)[C@H]1OC(=O)[C@@H]1NC(=O)OCCCCCc1ccccc1` (relative stereo) [Example 51, 5-Phenylpentyl-N-[(2R*,3R*)-2-isopropyl-4-oxo-oxetan-3-yl]-carbamate], the inhibition at 3 µM is 92%.

As for `CC(C)[C@H]1OC(=O)[C@@H]1NC(=O)OCc1ccc(-c2ccccc2)cc1` (relative stereo) [Example 52, (4-Phenylphenyl)-methyl-N-[(2R*,3R*)-2-isopropyl-4-oxo-oxetan-3-yl]-carbamate], the inhibition at 3 µM is 93%.

For the molecule `CC(C)[C@@H]1OC(=O)[C@@H]1NC(=O)OCCCCCc1ccccc1` (relative stereo) [Example 53, 5-Phenylpentyl-N-[(2S*,3R*)-2-isopropyl-4-oxo-oxetan-3-yl]-carbamate], the inhibition at 3 µM is 55%.

For the molecule `CC(C)[C@@H]1OC(=O)[C@@H]1NC(=O)OCc1ccc(-c2ccccc2)cc1` (relative stereo) [Example 54, (4-Phenylphenyl)-methyl-N-[(2S*,3R*)-2-isopropyl-4-oxo-oxetan-3-yl]-carbamate], the inhibition at 3 µM turned out to be 53%.

As for `CC(C)(C)[C@H]1OC(=O)[C@@H]1NC(=O)OCc1ccc(-c2ccccc2)cc1` (relative stereo) [Example 57, (4-Phenyl-phenyl)-methyl-N-[(2R*,3R*)-2-tert-butyl-4-oxo-oxetan-3-yl]-carbamate], the inhibition at 3 µM stood at 73%.

For `CC(C)(C)[C@@H]1OC(=O)[C@@H]1NC(=O)OCc1ccc(-c2ccccc2)cc1` (relative stereo) [Example 59, (4-Phenyl-phenyl)-methyl-N-[(2S*,3R*)-2-tert-butyl-4-oxo-oxetan-3-yl]-carbamate], the inhibition at 3 µM worked out at 57%.

Turning to `CCC1OC(=O)C1NC(=O)OC(C)(C)C` (stereo not drawn) [Example 13, tert-Butyl-N-[(2S*,3R*)-2-ethyl-4-oxo-oxetan-3-yl]-carbamate and tert-Butyl-N-[(2S*,3S*)-2-ethyl-4-oxo-oxetan-3-yl]-carbamate], the inhibition at 3 µM worked out at 48%.

For the molecule `C[C@@H]1OC(=O)[C@@H]1NC(=O)OC1CCN(Cc2ccccc2)CC1` [Example 21, (1-benzyl-4-piperidyl)-N-[(2S,3R)-2-methyl-4-oxo-oxetan-3-yl]-carbamate], the inhibition at 3 µM turned out to be 21%.

Staying with this test, now noted: read-out: r-NAAA % inhib. @ 10 μM.
`C[C@@H]1OC(=O)[C@@H]1NC(=O)OCc1cccc(-c2ccccc2)c1` [Example 14, (3-phenylphenyl)-methyl-N-[(2S,3R)-2-methyl-4-oxo-oxetan-3-yl]-carbamate]: the inhibition at 10 µM amounted to 28%.
